Laboratory results taken from US20230382904A1, “SUBSTITUTED 4-([1,2,4]TRIAZOLO[1,5-a]PYRIDIN-6-YL)THIOPHENE-2-CARBOXAMIDE DERIVATIVES AND USE THEREOF” (The Johns Hopkins University, priority 2020, published 2023).

Assays:
[1] = In vitro PhysChem properties; type: physicochemical
DLK = DLK (Homo sapiens (Human), UniProt Q12852); assay: DLK biochemical assay (TR-FRET, MKK7 phosphorylation)
Procedure, shortened: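 Catalytic-domain DLK (10 nM) phosphorylates His-MKK7 (15 nM) with 60 μM ATP, 90 min at RT, in pH 7.5 HEPES buffer. Phospho-T275/S277 read by TR-FRET (Eu anti-phospho donor, XL665 anti-His acceptor) after 16 h detection, at 37° C. in 1536 or 4° C. in 384 format.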

LZK = LZK (Homo sapiens (Human), UniProt O43283); assay: LZK biochemical assay (TR-FRET, MKK7 phosphorylation)
Procedure, shortened: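 Catalytic-domain LZK (10 nM) phosphorylated His-MKK7 (15 nM) with 15 μM ATP for 90 min at RT. Phospho-T275/S277 detected by Eu-anti-phospho-MKK7/XL665-anti-His TR-FRET after 16 h at 32° C, using the 665/Eu ratio. Buffer: 50 mM Hepes pH 7.5, 10 mM MgCl2, 1 mM DTT.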

[2] = test system: primary murine retinal ganglion cells; assay: Retinal ganglion cell (RGC) viability assay; type: cell-based; conditions: among compounds 4, 19, 94 and 112
Description: The RGC assay detected the viability of primary murine retinal ganglion cells via Cell Titer Glo (Promega), using a previously described assay (Proc. Natl. Acad. Sci. USA. 2013, 110(10), 4045-50), which is incorporated herein by reference in its entirety.
RGCs were freshly isolated from approximately P2 murine retinas by immunopanning using mouse anti-CD90 coated plates. Cells are seeded into poly-D-lysine or laminin coated plates in Neurobasal medium supplemented by 1% Pen/Strep (Gibco 15140-122), 0.01 mg/ml insulin, 1 mM sodium pyruvate, 1% of 100× Sato (400 mg transferrin, 400 mg BSA, 0.25 mg progesterone, 64 mg putrescine, 160 μg sodium selenite in 40 mL Neurobasal medium), 0.04 μg/ml triiodo-thyronine, 2 mM L-glutamine, 0.05 mg/ml N-acetyl cysteine, 10 μM forskolin, 2% 50× B27 (Gibco 17504-044).
For the assay 500-2000 cells per well in a volume of 40 μl were used (384 MTP format). After 72 hours 20 μl Cell Titer Glo reagent was added and viability is measured via luminescent quantitation of ATP. The amount of ATP was directly proportional to the number of cells present in culture.

[3] = In vitro PK properties (metabolic stability); type: in vitro ADME
Description: Metabolic stabilities in rat hepatocytes were determined by incubating the compounds at low concentrations (e.g., below 1 μM) and at low cell numbers (e.g., at 1×10^6 cells/ml) to ensure linear kinetics. 7 time-points from the incubation mixture were withdrawn for analysis to define the half-life of the compound. From that half-life the intrinsic clearance in hepatocytes was calculated and used further to extrapolate the blood clearance (using the well-stirred model) and the corresponding Fmax value (maximum expected bioavailability after first pass of the liver) for the compounds. The CL and Fmax values reflect Phase I and II metabolism in hepatocytes. To minimize the influence of organic solvents in the incubation mixture their content was limited to max. 1% for ACN or max. 0.2% for DMSO. The values given in row 5 in the table in FIG. 1 are rat hepatocytes CLblood [L/h/kg] and rat hepatocytes Fmax [%].

Chain of DLK (Q12852 1-520): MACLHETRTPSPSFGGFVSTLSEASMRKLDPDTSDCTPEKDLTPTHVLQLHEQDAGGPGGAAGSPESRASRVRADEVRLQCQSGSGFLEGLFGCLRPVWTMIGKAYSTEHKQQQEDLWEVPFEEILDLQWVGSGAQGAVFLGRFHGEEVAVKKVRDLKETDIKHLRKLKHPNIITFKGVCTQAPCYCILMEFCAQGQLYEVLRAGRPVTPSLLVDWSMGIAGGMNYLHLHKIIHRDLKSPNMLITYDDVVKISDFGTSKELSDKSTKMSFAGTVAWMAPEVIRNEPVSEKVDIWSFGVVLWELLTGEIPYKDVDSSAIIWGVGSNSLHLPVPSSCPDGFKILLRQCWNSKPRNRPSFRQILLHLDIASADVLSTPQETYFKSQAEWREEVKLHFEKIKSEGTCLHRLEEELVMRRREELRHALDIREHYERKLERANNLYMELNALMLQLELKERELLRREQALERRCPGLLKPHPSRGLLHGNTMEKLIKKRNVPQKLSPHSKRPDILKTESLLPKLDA
Chain of LZK (O43283 168-409): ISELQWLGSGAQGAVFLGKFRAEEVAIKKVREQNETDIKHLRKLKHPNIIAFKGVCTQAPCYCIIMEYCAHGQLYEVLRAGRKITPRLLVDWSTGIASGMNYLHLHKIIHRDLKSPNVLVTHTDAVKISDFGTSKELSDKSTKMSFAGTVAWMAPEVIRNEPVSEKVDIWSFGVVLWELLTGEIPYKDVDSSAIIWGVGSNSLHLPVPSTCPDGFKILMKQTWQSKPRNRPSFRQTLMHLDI

chemical stability [1]: chemically stable
IC50 (DLK): 0.0032 µM
IC50 (LZK): 0.029 µM
metabolic stability [3]: metabolically labile
SMILES: CC[C@H](NC(=O)c1cc(-c2cc(C(=O)N[C@@H](C)CC)c3nc(N)nn3c2)cs1)c1ccc(F)cc1 [Compound 112, 2-Amino-N-[(2S)-butan-2-yl]-6-(5-{[(1S)-1-(4-fluorophenyl)propyl]carbamoyl}thiophen-3-yl)[1,2,4]triazolo[1,5-a]pyridine-8-carboxamide]
activity in RGC assay [2]: most active
